# System: CAL-51
# Test: normalised viability (% of control), CellTiter-Blue; higher = more viable cells (about 100 = DMSO control)
# Conditions: 100 nM; incubation time: 72 h
# How it was run: (§1)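 Breast cancer cell lines in 20 µl suspension were seeded onto 384-well plates pre-loaded with compound dissolved in 5 µl medium, then incubated 72 h. CellTiter-Blue reagent (2.5 µl) was added for 2 h at 37 °C and fluorescence read at 560/590 nm. Each plate was normalised to vehicle (100) and a positive kill control (0), with Z'-factor quality control. The value is normalised viability at one listed concentration of the series.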
row,Structure (SMILES),normalised viability [%]
1,CC(=O)c1c(C)c2cnc(Nc3ccc(N4CCNCC4)cn3)nc2n(C2CCCC2)c1=O,93.7
2,Oc1ncnc2[nH]ncc12 [Allopurinol],94.8
3,O=C1CN2Cc3c(ccc(Cl)c3Cl)N=C2N1 [Anagrelide],84.3
4,CC1=C2C[C@H]3[C@@H](CC=C4C[C@@H](O)CC[C@@]43C)[C@@H]2CC[C@]12O[C@@H]1C[C@H](C)CN[C@H]1[C@H]2C [Cyclopamine],111
5,C[C@]1(O)C[C@@H](c2nc(-c3ccc4ccc(-c5ccccc5)nc4c3)c3c(N)nccn32)C1 [OSI-906],96.3
6,COc1cc(F)c(F)c(Nc2ccc(I)cc2F)c1NS(=O)(=O)C1(C[C@H](O)CO)CC1 [RDEA119],81.2

# Same assay, conditions: 120 nM; incubation time: 72 h
row,Structure (SMILES),normalised viability [%]
1,CC[C@@H]1C(=O)OC[C@@H]1Cc1cncn1C [Pilocarpine],103

# Same assay, conditions: 400 nM; incubation time: 72 h
row,Structure (SMILES),normalised viability [%]
1,CC[C@@H]1C(=O)OC[C@@H]1Cc1cncn1C [Pilocarpine],98.2

# System: MDA-MB-453
# Test: as above
# Conditions: 0.297 nM; incubation time: 72 h
# How it was run: as §1
row,Structure (SMILES),normalised viability [%]
1,C[C@]12CC[C@@H]3c4ccc(OC(=O)N(CCCl)CCCl)cc4CC[C@H]3[C@@H]1CC[C@@H]2O [Estramustine],89.2

# Same assay, conditions: 2.97 nM; incubation time: 72 h
row,Structure (SMILES),normalised viability [%]
1,C[C@]12CC[C@@H]3c4ccc(OC(=O)N(CCCl)CCCl)cc4CC[C@H]3[C@@H]1CC[C@@H]2O [Estramustine],102

# Same assay, conditions: 3 nM; incubation time: 72 h
row,Structure (SMILES),normalised viability [%]
1,CC(=O)c1c(C)c2cnc(Nc3ccc(N4CCNCC4)cn3)nc2n(C2CCCC2)c1=O,112
2,Oc1ncnc2[nH]ncc12 [Allopurinol],115
3,O=C1CN2Cc3c(ccc(Cl)c3Cl)N=C2N1 [Anagrelide],110
4,CC1=C2C[C@H]3[C@@H](CC=C4C[C@@H](O)CC[C@@]43C)[C@@H]2CC[C@]12O[C@@H]1C[C@H](C)CN[C@H]1[C@H]2C [Cyclopamine],123
5,C[C@]1(O)C[C@@H](c2nc(-c3ccc4ccc(-c5ccccc5)nc4c3)c3c(N)nccn32)C1 [OSI-906],97.9
6,COc1cc(F)c(F)c(Nc2ccc(I)cc2F)c1NS(=O)(=O)C1(C[C@H](O)CO)CC1 [RDEA119],87.9

# Same assay, conditions: 9.9 nM; incubation time: 72 h
row,Structure (SMILES),normalised viability [%]
1,C[C@]12CC[C@@H]3c4ccc(OC(=O)N(CCCl)CCCl)cc4CC[C@H]3[C@@H]1CC[C@@H]2O [Estramustine],101

# Same assay, conditions: 12 nM; incubation time: 72 h
row,Structure (SMILES),normalised viability [%]
1,CC[C@@H]1C(=O)OC[C@@H]1Cc1cncn1C [Pilocarpine],118

# Same assay, conditions: 30 nM; incubation time: 72 h
row,Structure (SMILES),normalised viability [%]
1,CC(=O)c1c(C)c2cnc(Nc3ccc(N4CCNCC4)cn3)nc2n(C2CCCC2)c1=O,104
2,Oc1ncnc2[nH]ncc12 [Allopurinol],105
3,O=C1CN2Cc3c(ccc(Cl)c3Cl)N=C2N1 [Anagrelide],102
4,CC1=C2C[C@H]3[C@@H](CC=C4C[C@@H](O)CC[C@@]43C)[C@@H]2CC[C@]12O[C@@H]1C[C@H](C)CN[C@H]1[C@H]2C [Cyclopamine],101
5,C[C@]1(O)C[C@@H](c2nc(-c3ccc4ccc(-c5ccccc5)nc4c3)c3c(N)nccn32)C1 [OSI-906],92.9
6,COc1cc(F)c(F)c(Nc2ccc(I)cc2F)c1NS(=O)(=O)C1(C[C@H](O)CO)CC1 [RDEA119],95.5

# Same assay, conditions: 100 nM; incubation time: 72 h
row,Structure (SMILES),normalised viability [%]
1,CC(=O)c1c(C)c2cnc(Nc3ccc(N4CCNCC4)cn3)nc2n(C2CCCC2)c1=O,79.1
2,Oc1ncnc2[nH]ncc12 [Allopurinol],105
3,O=C1CN2Cc3c(ccc(Cl)c3Cl)N=C2N1 [Anagrelide],98.5
4,CC1=C2C[C@H]3[C@@H](CC=C4C[C@@H](O)CC[C@@]43C)[C@@H]2CC[C@]12O[C@@H]1C[C@H](C)CN[C@H]1[C@H]2C [Cyclopamine],120
5,C[C@]1(O)C[C@@H](c2nc(-c3ccc4ccc(-c5ccccc5)nc4c3)c3c(N)nccn32)C1 [OSI-906],78.6
6,COc1cc(F)c(F)c(Nc2ccc(I)cc2F)c1NS(=O)(=O)C1(C[C@H](O)CO)CC1 [RDEA119],98.7

# Same assay, conditions: 120 nM; incubation time: 72 h
row,Structure (SMILES),normalised viability [%]
1,CC[C@@H]1C(=O)OC[C@@H]1Cc1cncn1C [Pilocarpine],93.5

# Same assay, conditions: 400 nM; incubation time: 72 h
row,Structure (SMILES),normalised viability [%]
1,CC[C@@H]1C(=O)OC[C@@H]1Cc1cncn1C [Pilocarpine],100

# System: Hs578T
# Test: as above
# Conditions: 0.99 nM; incubation time: 72 h
# How it was run: as §1
row,Structure (SMILES),normalised viability [%]
1,C[C@]12CC[C@@H]3c4ccc(OC(=O)N(CCCl)CCCl)cc4CC[C@H]3[C@@H]1CC[C@@H]2O [Estramustine],113

# Same assay, conditions: 10 nM; incubation time: 72 h
row,Structure (SMILES),normalised viability [%]
1,CC(=O)c1c(C)c2cnc(Nc3ccc(N4CCNCC4)cn3)nc2n(C2CCCC2)c1=O,100
2,Oc1ncnc2[nH]ncc12 [Allopurinol],108
3,O=C1CN2Cc3c(ccc(Cl)c3Cl)N=C2N1 [Anagrelide],101
4,CC1=C2C[C@H]3[C@@H](CC=C4C[C@@H](O)CC[C@@]43C)[C@@H]2CC[C@]12O[C@@H]1C[C@H](C)CN[C@H]1[C@H]2C [Cyclopamine],127
5,C[C@]1(O)C[C@@H](c2nc(-c3ccc4ccc(-c5ccccc5)nc4c3)c3c(N)nccn32)C1 [OSI-906],103
6,COc1cc(F)c(F)c(Nc2ccc(I)cc2F)c1NS(=O)(=O)C1(C[C@H](O)CO)CC1 [RDEA119],103

# Same assay, conditions: 40 nM; incubation time: 72 h
row,Structure (SMILES),normalised viability [%]
1,CC[C@@H]1C(=O)OC[C@@H]1Cc1cncn1C [Pilocarpine],101

# Same assay, conditions: 99 nM; incubation time: 72 h
row,Structure (SMILES),normalised viability [%]
1,C[C@]12CC[C@@H]3c4ccc(OC(=O)N(CCCl)CCCl)cc4CC[C@H]3[C@@H]1CC[C@@H]2O [Estramustine],100

# Same assay, conditions: 990 nM; incubation time: 72 h
row,Structure (SMILES),normalised viability [%]
1,C[C@]12CC[C@@H]3c4ccc(OC(=O)N(CCCl)CCCl)cc4CC[C@H]3[C@@H]1CC[C@@H]2O [Estramustine],98

# Same assay, conditions: 1000 nM; incubation time: 72 h
row,Structure (SMILES),normalised viability [%]
1,CC(=O)c1c(C)c2cnc(Nc3ccc(N4CCNCC4)cn3)nc2n(C2CCCC2)c1=O,83.9
2,Oc1ncnc2[nH]ncc12 [Allopurinol],120
3,O=C1CN2Cc3c(ccc(Cl)c3Cl)N=C2N1 [Anagrelide],90.9
4,CC1=C2C[C@H]3[C@@H](CC=C4C[C@@H](O)CC[C@@]43C)[C@@H]2CC[C@]12O[C@@H]1C[C@H](C)CN[C@H]1[C@H]2C [Cyclopamine],102

# From the supplement of paper PMC4862054
